Experimental data published in US20210323918A1, “COMPOSITIONS AND METHODS FOR SUPPRESSING AND/OR TREATING A GROWTH RELATED DISEASE AND/OR A CLINICAL CONDITION THEREOF” (CK Biotech Inc., priority 2018, published 2021).
pIC50: −log10 of the molar value.

What was measured:
[1] = tested on: Tibial organ cultures (E15.5); assay: Tibial organ culture (ex vivo); parameters: species or system mice; conditions: 100 nM for 6 days
Description: Tibial organ culture. Tibiae were isolated from embryonic day 15.5 (e15.5) mice and cultured for 6 days in phenol red-free a-MEM (Gibco) containing ascorbic acid, β-glycerophosphate, BSA, L-glutamine, and penicillin-streptomycin, as previously described (Gillespie et al, 2011). After dissection, tibiae were incubated in medium overnight and then treated with E2 (Sigma-Aldrich). Media and reagents were changed every 48 hours. Tibial images were captured using a SMZ-745T microscope (Nikon). Tibial length was measured prior to treatment and after 6 days in culture. The samples were then prepared for paraffin embedding, sectioned, and analyzed by H&E and IHC staining.

GSK3β (human) = GSK3β (human) (Homo sapiens, UniProt P49841); assay: GSK3β kinase assay; type: biochemical; conditions: from dose-response curve, FIG. 4C; read-out: IC50, in vitro GSK3β activity
GSK3β (human), sequence (P49841 whole entry): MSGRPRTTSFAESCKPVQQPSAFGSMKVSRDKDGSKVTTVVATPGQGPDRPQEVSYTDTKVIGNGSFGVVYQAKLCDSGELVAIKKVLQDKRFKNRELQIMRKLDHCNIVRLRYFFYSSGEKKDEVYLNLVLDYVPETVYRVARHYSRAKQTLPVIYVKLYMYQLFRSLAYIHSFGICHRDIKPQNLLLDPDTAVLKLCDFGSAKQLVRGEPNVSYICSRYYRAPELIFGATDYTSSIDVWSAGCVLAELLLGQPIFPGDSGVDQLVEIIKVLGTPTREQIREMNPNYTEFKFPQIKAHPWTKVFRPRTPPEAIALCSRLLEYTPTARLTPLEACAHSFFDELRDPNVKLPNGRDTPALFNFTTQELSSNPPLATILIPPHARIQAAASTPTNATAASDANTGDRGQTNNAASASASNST
Description: GSK3β kinase assay. GSK3β (human) was incubated with 8 mM MOPS (pH 7.0), 0.2 mM EDTA, 20 μM […](p) EDEEE (phospho-GS2 peptide) (SEQ ID NO. 37), 10 mM Mg acetate, and [γ-33P-ATP] (specific activity approx. 500 cpm/pmol, concentration as required). The reaction was initiated by the addition of the Mg-ATP mixture. After incubation for 40 minutes at room temperature, the reaction was stopped by addition of 3% phosphoric acid solution. 10 μl of the reaction was then spatted onto a P30 filtermat and washed three times for 5 minutes in 50 mM phosphoric acid and once in methanol prior to drying and scintillation counting.

ATDC5 cells = assay: Wnt/β-catenin signaling, proliferation and differentiation in ATDC5 chondrogenic cells; type: cell-based, mouse
Description: Cell culture and reagents. The mouse chondrogenic cell line, ATDC5, was obtained from the RIKEN Cell Batik. The human juvenile costal chondrocyte cell line, C28/I2, was provided by Dr. W. U. Kim (Catholic University, Korea). HEK293-TOP cells (HEK293 cells containing the chromosomally incorporated TOPFlash gene) were provided by Dr. S. Oh (Kuk Min University, Korea). ATDCS cells were maintained in DMEM/F12 (1:1) (Gibco, Grand Island, N.Y.) supplemented with 5% FBS (Gibco). To induce hypertrophic differentiation, ATDC5 cells were incubated with insulin-transferrin-sodium selenite (ITS) supplement (Gibco) in three-dimensional alginate beads for 3 days, as previously described. See e.g., Kawasaki Y. et al. (2008), Phosphorylation of GSK-3beta by cGMP-dependent protein kinase II promotes hypertrophic differentiation of murine chondrocytes. J CLIN INVEST 118: 2506-2515. C28/I2 and HEK293-TOP cells were maintained in DMEM (Gibco) containing 10% FBS. All chemicals were dissolved in dimethyl sulfoxide (DMSO; Sigma-Aldrich, St Louis, Mo.) for the in vitro studies. For E2 (17β-estradiol; Sigma-Aldrich) treatment, cells were cultured in phenol red-free DMEM/F12 with 5% charcoal-stripped FBS for 24 hours followed by serum-free medium for 24 hours before the experiment. The PTD-DBMP was synthesized by Peptide 2.0 Inc (Chantilly, Va.).
Immunocytochemistry. ATDCS or C28/I2 cells were seeded on glass coverslip in 12-well culture plates. The cells were washed with PBS and fixed with 4% PFA at room temperature for 15 minutes. After permeabilization with 0.1% triton-X-100 for 15 minutes and blocking with 5% BSA for 1 hour, the cells were incubated with primary antibodies specific for β-catenin (1:100) or CXXC5 l (1:200) at 4° C. overnight. The cells were washed in PBS and incubated with Alexa Fluor 488 or Alexa Fluor 555 secondary antibodies (1:200) at room temperature for 1 hour. Cell nuclei were counterstained with DAPI for 10 minutes and the stained samples were examined under a LSM700 META microscope using 405-, 488-, or 543-nm excitation wavelengths. For BrdU assay, cultured cells were incubated with BrdU solution (25 μM) overnight, followed by immunocytochemical staining with antibody against BrdU (1:100).
Immunoblot analyses. […] Protein samples were separated on a 8-12% sodium dodecylsulfate polyacrylamide gel electrophoresis (SDS-PAGE) and transferred to a nitrocellulose membrane (Whatman). Immunoblotting was performed with the following primary antibodies: anti-β-catenin (Santa Cruz Biotechnology, Santa Cruz, Calif., sc-7199; 1:3,000), anti-CXXC5 (lab made;1:200) anti-Myc tag (MBL, Aichi, Japan, M192-3; 1:1,000), anti-FLAG (Sigma-Aldrich, F7425; 1:1,000), anti-p-GSK3β (S9; Cell Signaling Technology, Danvers, Mass., 9336S; 1:1,000), anti-COL2A1 (Santa Cruz Biotechnology, sc-28887; 1:500), anti-RUNX2 (Abcam, ab23981; 1:500), anti-COLIOAI (Cosmo Bio, LSL-LB-0092; 1:500), anti-MMP13 (Santa Cruz Biotechnology, sc-30073; 1:500), anti-ERK (Santa Cruz Biotechnology, sc-94; 1:3,000) and anti-α-tubulin (Cell Signaling Technology, 3873S; 1:20,000). Samples were then incubated with horseradish-peroxidase-conjugated anti-mouse (Cell Signaling Technology, 7076; 1:3,000), anti-rabbit (Bio-Rad, 1706515; 1:3,000), or anti-goat (Santa Cruz Biotechnology; sc-2020; 1:3,000) secondary antibodies. Protein bands were visualized with enhanced chemiluminescence (ECL; Amersham Bioscience, Piscataway, N.J.) using a luminescent image analyzer, LAS-3000 (Fujifilm, Tokyo, Japan). Immunoblot bands were analyzed using Multi-Gauge V3.0 software (Fujifilm). Points of interest (POIs) from immunoblot bands were marked and quantified using densitometry, and the background signals were subtracted from respective immunoblot signals. Relative densitometry values were presented as the intensity ratios of each protein to loading control protein (α-tubulin or ERK).
Immunoprecipitation. Immunoprecipitation was performed as previously described (Kim et al, 2015). […]

CXXC5-DVL interaction = target: T1, CXXC5-DVL interaction (Homo sapiens, UniProt O14640); assay: In vitro CXXC5-DVL binding assay (FITC-tagged PTD-DBMP on DVL PDZ domain); conditions: from dose-response curve, FIG. 4B
T1 construct: 5 mg/ml purified DVL PDZ domain was incubated in each well
T1 sequence (O14640 251-323 limits assumed): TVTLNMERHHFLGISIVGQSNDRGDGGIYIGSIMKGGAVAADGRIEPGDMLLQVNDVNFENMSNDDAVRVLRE

[2] = ATDC5 cells, 0.01 or 0.1 μM, 4 hours, FIG. 12

Compound | tibial length [1] | pIC50 (GSK3β (human)) | number of BrdU-positive ATDC5 cells (ATDC5 cells; 0.01 or 0.1 μM, 48 hours, FIG. 11A) | CXXC5-DVL interaction, immunoprecipitation (ATDC5 cells; ATDC5 cells, 0.1 μM, 4 hours, FIG. 4F) | nuclear translocation of β-catenin (ATDC5 cells; ATDC5 cells, 0.1 μM, 48 hours, FIG. 4G) | mRNA levels of chondrogenic markers (ATDC5 cells; ATDC5 cells, 0.1 μM, 3 days, alginate beads, FIG. 11B) | expression levels of Wnt/β-catenin target genes (Fosl1, Wisp1, Axin2) (ATDC5 cells; [2]) | off-target effects: 19 other genes that respond to other pathways, mRNA (ATDC5 cells; [2]) | β-catenin level with inactivation of GSK3β, immunoblot (ATDC5 cells; ATDC5 cells, 24 hours, FIG. 4E) | pIC50 (CXXC5-DVL interaction)
17β-estradiol [Compound E2] | reduced | – | – | – | – | – | – | – | – | –
CO/N=C1/C(=C2/C(=O)Nc3cc(Cl)c(Cl)cc32)Nc2ccccc21 [KY19382, 5,6-dichloroindirubin-3′-methoxime] | – | 8.00 | enhanced number | interruption of the CXXC5-DVL interaction | elevated | upregulated | markedly increased | not significantly altered | increment of β-catenin | 7.72
